The source of these data is patent US9708314B2, “Heterocyclic amide compound” (NISSAN CHEMICAL INDUSTRIES, LTD., priority 2013, dated 2017).

SMILES strings stand for the structures.

What all share (assay type): in vivo
Data set [1] has as its system transplanted Oryza sativa. The experiment in a line: Test Example 1: effect on crop, application before weed generation in submerged conditions. The conditions noted are these: Application herbicide amount 320 g/ha; Seventeenth Table. The procedure, abridged:
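Submerged pot test: alluvial soil, 4 cm water, seeds sown mixed, 2.5-leaf rice transplanted; emulsion in water applied to surface day of sowing, dose g/ha; greenhouse 25–30° C.; 3 wk; 0–5 rating.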

Data set [2] relates to directly sowed Oryza sativa. The experiment in a line: Test Example 3: effect on crop by application to foliage (Wagner pot, water depth 0.1-0.5 cm). The conditions noted are these: Nineteenth Table; application to foliage; application herbicide amount 320 g/ha. The method, boiled down:
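Wagner pot foliar test: sow, grow 14 d (25–30 °C), spray diluted emulsion at set g/ha, score after 3 wk; 0 ≤5%, 5 ≥90% herbicidal ratio.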

The test system of the next data set is Stellaria media. The experiment in a line: Test Example 4: herbicidal effect by application to foliage (diluvial soil, plastic box). Particulars: for P: herbicidal effect on Stellaria media: application to foliage, application herbicide amount 320 g/ha; for P (Stellaria media) herbicidal effect grade: foliage application, 320 g/ha. The procedure, abridged: (§1)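 Read-out is a 0–5 visual grade of herbicidal ratio (5: ≥90%, almost withered; 0: ≤5%) taken three weeks after treatment. Compound was applied as a diluted emulsion to stem and leaf parts of 14-day greenhouse-grown plants (25° C. to 30° C.) at rates expressed as g/ha.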

Data set [3] relates to Beta vulgaris ssp. vulgaris. The experiment in a line: Test Example 4: effect on crop by application to foliage (diluvial soil, plastic box). The conditions noted are these: for f: effect on crop, Beta vulgaris ssp. vulgaris: application to foliage, application herbicide amount 320 g/ha; for f (Beta vulgaris ssp. vulgaris) effect on crop grade: foliage application, 320 g/ha. The procedure, abridged:
as §1

A further data set deals with Brassica campestris L. The description is as above. Particulars: for g: effect on crop, Brassica campestris L.: application to foliage, application herbicide amount 320 g/ha; for g (Brassica campestris L.) effect on crop grade: foliage application, 320 g/ha. The method, boiled down:
as §1

A further data set relates to Glycine max. The data set is described as above. Particulars: for d: effect on crop, Glycine max: application to foliage, application herbicide amount 320 g/ha; for c (Glycine max) effect on crop grade: foliage application, 320 g/ha. The procedure, abridged: as §1
The next data set concerns Triticum aestivum. The description is as above. The conditions noted are these: for e: effect on crop, Triticum aestivum: application to foliage, application herbicide amount 320 g/ha; for e (Triticum aestivum) effect on crop grade: foliage application, 320 g/ha. The method, boiled down:
as §1

For a further data set, the system named is Zea mays. The description is as above. Particulars: for c: effect on crop, Zea mays: application to foliage, application herbicide amount 320 g/ha; for b (Zea mays) effect on crop grade: foliage application, 320 g/ha. The method, boiled down:
as §1

Data set [4] deals with directly sowed Oryza sativa. Described as above. The conditions noted are these: for b: effect on crop, directly sowed Oryza sativa: application to foliage, application herbicide amount 320 g/ha; for d (directly sowed Oryza sativa) effect on crop grade: foliage application, 320 g/ha. The method, boiled down: as §1

In the case of `COCCOCc1nnc2c(C(=O)Nc3nnnn3C)ccc(C(F)(F)F)n12` [2-014], the “a: transplanted Oryza sativa (effect on crop grade)” value (shortened to “a: transplanted Oryza sativa”) in [1] was 4 (Herbicidal ratio of 70% or more and less than 90%). Besides, the “b (effect on crop grade)” value in [2] is given as 5 (Herbicidal ratio of 90% or more (almost completely withered)). Besides, the “P: herbicidal effect on Stellaria media” value with Stellaria media is reported as 5 (Herbicidal ratio of 90% or more (almost completely withered)). Moreover, the “f: effect on crop, Beta vulgaris ssp. vulgaris” value (“f: effect on crop” below) in data set [3] is 5 (Herbicidal ratio of 90% or more (almost completely withered)). Besides, in the data set with Brassica campestris L., the “g: effect on crop, Brassica campestris L.” value (shortened to “g: effect on crop”) was 4 (Herbicidal ratio of 70% or more and less than 90%). In addition, in the data set with Glycine max, the “d: effect on crop, Glycine max” value is 4 (Herbicidal ratio of 70% or more and less than 90%). Also, the “e: effect on crop, Triticum aestivum” value with Triticum aestivum is 4 (Herbicidal ratio of 70% or more and less than 90%). Also, the “c: effect on crop, Zea mays” value with Zea mays is 3 (Herbicidal ratio of 40% or more and less than 70%). Further, in data set [4], the “b: effect on crop, directly sowed Oryza sativa” value (“b: effect on crop” for short) is reported as 5 (Herbicidal ratio of 90% or more (almost completely withered)).
For `CCC(CC)c1nnc2c(C(=O)Nc3nnnn3C)ccc(C(F)(F)F)n12` [2-006], the “a: transplanted Oryza sativa” value in data set [1] is 4 (Herbicidal ratio of 70% or more and less than 90%). Further, the “b (effect on crop grade)” value in data set [2] is 5 (Herbicidal ratio of 90% or more (almost completely withered)). For the same compound, the “P: herbicidal effect on Stellaria media” value in the data set with Stellaria media is listed as 5 (Herbicidal ratio of 90% or more (almost completely withered)). Also, the “f: effect on crop” value in [3] is 5 (Herbicidal ratio of 90% or more (almost completely withered)). The “g: effect on crop” value with Brassica campestris L. is 4 (Herbicidal ratio of 70% or more and less than 90%). The “d: effect on crop, Glycine max” value in the data set with Glycine max was 4 (Herbicidal ratio of 70% or more and less than 90%). Besides, the “e: effect on crop, Triticum aestivum” value in the data set with Triticum aestivum was 3 (Herbicidal ratio of 40% or more and less than 70%). In addition, in the data set on Zea mays, the “c: effect on crop, Zea mays” value was 1 (Herbicidal ratio of 5% or more and less than 20%). For the same compound, the “b: effect on crop” value in data set [4] is on record as 5 (Herbicidal ratio of 90% or more (almost completely withered)).
Regarding `Cn1nnnc1NC(=O)c1ccc(C(F)(F)F)n2c(C3CCOC3)nnc12` (stereo not drawn) [2-022], the “a: transplanted Oryza sativa” value in [1] is listed as 5 (Herbicidal ratio of 90% or more (almost completely withered)). In data set [2], the “b (effect on crop grade)” value is 5 (Herbicidal ratio of 90% or more (almost completely withered)). Further, the “P: herbicidal effect on Stellaria media” value in the data set on Stellaria media is reported as 5 (Herbicidal ratio of 90% or more (almost completely withered)). Further, in data set [3], the “f: effect on crop” value is reported as 5 (Herbicidal ratio of 90% or more (almost completely withered)). In the data set on Brassica campestris L., the “g: effect on crop” value was 5 (Herbicidal ratio of 90% or more (almost completely withered)). For the same compound, the “d: effect on crop, Glycine max” value in the data set on Glycine max is on record as 5 (Herbicidal ratio of 90% or more (almost completely withered)). Further, in the data set with Triticum aestivum, the “e: effect on crop, Triticum aestivum” value is 3 (Herbicidal ratio of 40% or more and less than 70%). For the same compound, in the data set with Zea mays, the “c: effect on crop, Zea mays” value was 1 (Herbicidal ratio of 5% or more and less than 20%). For the same compound, the “b: effect on crop” value in data set [4] was 5 (Herbicidal ratio of 90% or more (almost completely withered)).
`Cn1nnnc1NC(=O)c1ccc(C(F)(F)F)n2c(C3CC3)nnc12` [2-005]: the “a: transplanted Oryza sativa” value in data set [1] was 0 (Herbicidal ratio of 5% or less (almost no effect)). The “b (effect on crop grade)” value in data set [2] was 2 (Herbicidal ratio of 20% or more and less than 40%). Moreover, the “P: herbicidal effect on Stellaria media” value in the data set with Stellaria media is 5 (Herbicidal ratio of 90% or more (almost completely withered)). The “f: effect on crop” value in data set [3] is 5 (Herbicidal ratio of 90% or more (almost completely withered)). Also, the “g: effect on crop” value with Brassica campestris L. was 4 (Herbicidal ratio of 70% or more and less than 90%). In addition, in the data set with Glycine max, the “d: effect on crop, Glycine max” value was 3 (Herbicidal ratio of 40% or more and less than 70%). Moreover, the “e: effect on crop, Triticum aestivum” value in the data set on Triticum aestivum was 3 (Herbicidal ratio of 40% or more and less than 70%). Further, the “c: effect on crop, Zea mays” value with Zea mays is 1 (Herbicidal ratio of 5% or more and less than 20%). The “b: effect on crop” value in [4] is reported as 0 (Herbicidal ratio of 5% or less (almost no effect)).
Regarding `Cn1nnnc1NC(=O)c1ccc(C(F)(F)F)n2c(C3=NOC(C)(C)C3)nnc12` [2-028], the “a: transplanted Oryza sativa” value in data set [1] is 5 (Herbicidal ratio of 90% or more (almost completely withered)). Besides, the “b (effect on crop grade)” value in data set [2] is 5 (Herbicidal ratio of 90% or more (almost completely withered)). Moreover, the “P (Stellaria media) herbicidal effect grade” value with Stellaria media is listed as 5 (Herbicidal ratio of 90% or more (almost completely withered)). Also, in data set [3], the “f (Beta vulgaris ssp. vulgaris) effect on crop grade” value is 5 (Herbicidal ratio of 90% or more (almost completely withered)). Further, the “g (Brassica campestris L.) effect on crop grade” value in the data set with Brassica campestris L. was 5 (Herbicidal ratio of 90% or more (almost completely withered)). In addition, the “c (Glycine max) effect on crop grade” value in the data set with Glycine max is 3 (Herbicidal ratio of 40% or more and less than 70%). The “e (Triticum aestivum) effect on crop grade” value in the data set with Triticum aestivum was 4 (Herbicidal ratio of 70% or more and less than 90%). Besides, the “b (Zea mays) effect on crop grade” value with Zea mays was 5 (Herbicidal ratio of 90% or more (almost completely withered)). In addition, in data set [4], the “d (directly sowed Oryza sativa) effect on crop grade” value is 4 (Herbicidal ratio of 70% or more and less than 90%).
On to `Cn1nnnc1NC(=O)c1ccc(C(F)(F)F)n2c(CSCC(F)(F)F)nnc12` [2-030], for which the “a: transplanted Oryza sativa” value in data set [1] is 3 (Herbicidal ratio of 40% or more and less than 70%). Further, the “b (effect on crop grade)” value in data set [2] is 5 (Herbicidal ratio of 90% or more (almost completely withered)). Besides, the “P (Stellaria media) herbicidal effect grade” value in the data set with Stellaria media was 5 (Herbicidal ratio of 90% or more (almost completely withered)). In data set [3], the “f (Beta vulgaris ssp. vulgaris) effect on crop grade” value was 5 (Herbicidal ratio of 90% or more (almost completely withered)). For the same compound, in the data set with Brassica campestris L., the “g (Brassica campestris L.) effect on crop grade” value is on record as 5 (Herbicidal ratio of 90% or more (almost completely withered)). Further, in the data set with Glycine max, the “c (Glycine max) effect on crop grade” value is on record as 0 (Herbicidal ratio of 5% or less (almost no effect)). Also, in the data set on Triticum aestivum, the “e (Triticum aestivum) effect on crop grade” value was 3 (Herbicidal ratio of 40% or more and less than 70%). Besides, the “b (Zea mays) effect on crop grade” value in the data set with Zea mays is on record as 5 (Herbicidal ratio of 90% or more (almost completely withered)). In addition, in data set [4], the “d (directly sowed Oryza sativa) effect on crop grade” value was 4 (Herbicidal ratio of 70% or more and less than 90%).
As for `Cn1nnnc1NC(=O)c1ccc(C(F)(F)F)n2c(C(C)(C)C)nnc12` [2-027], the “a: transplanted Oryza sativa” value in data set [1] is 4 (Herbicidal ratio of 70% or more and less than 90%). The “b (effect on crop grade)” value in data set [2] was 5 (Herbicidal ratio of 90% or more (almost completely withered)). Besides, the “P: herbicidal effect on Stellaria media” value in the data set with Stellaria media is 5 (Herbicidal ratio of 90% or more (almost completely withered)). Besides, the “f: effect on crop” value in data set [3] was 5 (Herbicidal ratio of 90% or more (almost completely withered)). Also, the “g: effect on crop” value in the data set with Brassica campestris L. was 4 (Herbicidal ratio of 70% or more and less than 90%). Also, the “d: effect on crop, Glycine max” value in the data set on Glycine max is 1 (Herbicidal ratio of 5% or more and less than 20%). Besides, in the data set with Triticum aestivum, the “e: effect on crop, Triticum aestivum” value was 3 (Herbicidal ratio of 40% or more and less than 70%). For the same compound, in the data set with Zea mays, the “c: effect on crop, Zea mays” value is reported as 0 (Herbicidal ratio of 5% or less (almost no effect)). The “b: effect on crop” value in data set [4] was 4 (Herbicidal ratio of 70% or more and less than 90%).
